# Test results from PubChem BioAssay (NCI).
# Where “and” joins values, the source holds several entries; their conditions need not be identical. Equal entries are not always repeated.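 GI50 marks 50% less growth. TGI: total growth inhibition.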
# How the values were obtained:
# Assay in all cases: inhibition of tumour cell growth, NCI panel, 384-well format
# OVCAR-5 ovarian = test system: OVCAR-5 ovarian
# NCI-H23 lung = test system: NCI-H23 lung
# A549 NSCLC = test system: A549 NSCLC
# SR leukemia = test system: SR leukemia
# OVCAR-3 ovarian = test system: OVCAR-3 ovarian
# MDA-MB-435 melanoma = test system: MDA-MB-435 melanoma
# K-562 leukemia = test system: K-562 leukemia
# CCRF-CEM leukemia = test system: CCRF-CEM leukemia
# MDA-MB-231 breast = test system: MDA-MB-231 breast
# 786-0 renal = test system: 786-0 renal
# IGROV1 ovarian = test system: IGROV1 ovarian
# SF-539 CNS = test system: SF-539 CNS
# U251 glioblastoma = test system: U251 glioblastoma
# HCC-2998 colon = test system: HCC-2998 colon
# SK-MEL-5 melanoma = test system: SK-MEL-5 melanoma
# HCT-15 colon = test system: HCT-15 colon
# SW-620 colon = test system: SW-620 colon
# A498 renal = test system: A498 renal
# HS 578T breast = test system: HS 578T breast
# SNB-19 CNS = test system: SNB-19 CNS
# M14 melanoma = test system: M14 melanoma
# HCT-116 colon = test system: HCT-116 colon
# SF-268 CNS = test system: SF-268 CNS
# SK-OV-3 ovarian = test system: SK-OV-3 ovarian
# UACC-62 melanoma = test system: UACC-62 melanoma
# KM12 colon = test system: KM12 colon
# HT29 colon = test system: HT29 colon
# NCI-H522 lung = test system: NCI-H522 lung
# HL-60(TB) leukemia = test system: HL-60(TB) leukemia
# HOP-62 NSCLC = test system: HOP-62 NSCLC
# SN12C renal = test system: SN12C renal
# TK-10 renal = test system: TK-10 renal
# MALME-3M melanoma = test system: MALME-3M melanoma
# HOP-92 NSCLC = test system: HOP-92 NSCLC
# CAKI-1 renal = test system: CAKI-1 renal
# EKVX NSCLC = test system: EKVX NSCLC
# PC-3 prostate = test system: PC-3 prostate
# NCI/ADR-RES ovarian = test system: NCI/ADR-RES ovarian
# COLO 205 colon = test system: COLO 205 colon
# BT-549 breast = test system: BT-549 breast
# MOLT-4 leukemia = test system: MOLT-4 leukemia
# OVCAR-4 ovarian = test system: OVCAR-4 ovarian
# SK-MEL-28 melanoma = test system: SK-MEL-28 melanoma
# DU-145 prostate = test system: DU-145 prostate
# LOX IMVI melanoma = test system: LOX IMVI melanoma
# RPMI-8226 leukemia = test system: RPMI-8226 leukemia
# MDA-MB-468 breast = test system: MDA-MB-468 breast
# SK-MEL-2 melanoma = test system: SK-MEL-2 melanoma
# NCI-H460 NSCLC = test system: NCI-H460 NSCLC
# ACHN renal = test system: ACHN renal
# SF-295 CNS = test system: SF-295 CNS
# RXF 393 renal = test system: RXF 393 renal
# UACC-257 melanoma = test system: UACC-257 melanoma
# T-47D breast = test system: T-47D breast
# NCI-H226 lung = test system: NCI-H226 lung
# SNB-75 CNS = test system: SNB-75 CNS
# OVCAR-8 ovarian = test system: OVCAR-8 ovarian
# NCI-H322M lung = test system: NCI-H322M lung
smiles,measurement,setting,value
COc1cnccc1Nc1nc(-c2nn(Cc3c(F)cc(OCCO)cc3F)c3ccccc23)ncc1OC,GI50,OVCAR-5 ovarian,2.86 µM
same,TGI,OVCAR-5 ovarian,7.17 µM
same,GI50,NCI-H23 lung,1.63 µM
same,TGI,NCI-H23 lung,3.15 µM
same,GI50,A549 NSCLC,1.54 µM
same,TGI,A549 NSCLC,2.92 µM
same,GI50,SR leukemia,0.261 µM
same,TGI,SR leukemia,1.25 µM
same,GI50,OVCAR-3 ovarian,1.61 µM
same,TGI,OVCAR-3 ovarian,3.1 µM
same,GI50,MDA-MB-435 melanoma,1.73 µM
same,TGI,MDA-MB-435 melanoma,3.36 µM
same,GI50,K-562 leukemia,1.21 µM
same,TGI,K-562 leukemia,2.56 µM
same,GI50,CCRF-CEM leukemia,0.395 µM
same,TGI,CCRF-CEM leukemia,1.74 µM
same,GI50,MDA-MB-231 breast,1.41 µM
same,TGI,MDA-MB-231 breast,3.22 µM
same,GI50,786-0 renal,1.53 µM
same,TGI,786-0 renal,2.89 µM
same,GI50,IGROV1 ovarian,1.94 µM
same,TGI,IGROV1 ovarian,4.47 µM
same,GI50,SF-539 CNS,1.45 µM
same,TGI,SF-539 CNS,2.76 µM
same,GI50,U251 glioblastoma,1.44 µM
same,TGI,U251 glioblastoma,2.78 µM
same,GI50,HCC-2998 colon,1.76 µM
same,TGI,HCC-2998 colon,4.47 µM
same,GI50,SK-MEL-5 melanoma,1.51 µM
same,TGI,SK-MEL-5 melanoma,2.85 µM
same,GI50,HCT-15 colon,1.2 µM
same,TGI,HCT-15 colon,2.51 µM
same,GI50,SW-620 colon,1.47 µM
same,TGI,SW-620 colon,2.84 µM
same,GI50,A498 renal,1.19 µM
same,TGI,A498 renal,2.43 µM
same,GI50,HS 578T breast,1.75 µM
same,TGI,HS 578T breast,3.89 µM
same,GI50,SNB-19 CNS,1.6 µM
same,TGI,SNB-19 CNS,3.08 µM
same,GI50,M14 melanoma,1.4 µM
same,TGI,M14 melanoma,2.86 µM
same,GI50,HCT-116 colon,1.62 µM
same,TGI,HCT-116 colon,3.6 µM
same,GI50,SF-268 CNS,0.845 µM
same,TGI,SF-268 CNS,2.72 µM
same,GI50,SK-OV-3 ovarian,1.75 µM
same,TGI,SK-OV-3 ovarian,3.93 µM
same,GI50,UACC-62 melanoma,1.5 µM
same,TGI,UACC-62 melanoma,2.86 µM
same,GI50,KM12 colon,1.27 µM
same,TGI,KM12 colon,3.13 µM
same,GI50,HT29 colon,1.85 µM
same,TGI,HT29 colon,5.48 µM
same,GI50,NCI-H522 lung,0.768 µM
same,TGI,NCI-H522 lung,2.03 µM
same,GI50,HL-60(TB) leukemia,0.838 µM
same,TGI,HL-60(TB) leukemia,2.16 µM
same,GI50,HOP-62 NSCLC,0.783 µM
same,TGI,HOP-62 NSCLC,2.06 µM
same,GI50,SN12C renal,1.31 µM
same,TGI,SN12C renal,2.65 µM
same,GI50,TK-10 renal,2.04 µM
same,TGI,TK-10 renal,4.14 µM
same,GI50,MALME-3M melanoma,1.77 µM
same,TGI,MALME-3M melanoma,3.2 µM
same,GI50,HOP-92 NSCLC,0.902 µM
same,TGI,HOP-92 NSCLC,2.19 µM
same,GI50,CAKI-1 renal,1.9 µM
same,TGI,CAKI-1 renal,8.3 µM
same,GI50,EKVX NSCLC,1.54 µM
same,TGI,EKVX NSCLC,3.16 µM
same,GI50,PC-3 prostate,1.87 µM
same,TGI,PC-3 prostate,3.36 µM
same,GI50,NCI/ADR-RES ovarian,1.87 µM
same,TGI,NCI/ADR-RES ovarian,3.9 µM
same,GI50,COLO 205 colon,2.27 µM
same,TGI,COLO 205 colon,> 33.3 µM
same,GI50,BT-549 breast,1.44 µM
same,TGI,BT-549 breast,2.8 µM
same,GI50,MOLT-4 leukemia,0.126 µM
same,TGI,MOLT-4 leukemia,0.548 µM
same,GI50,OVCAR-4 ovarian,1.64 µM
same,TGI,OVCAR-4 ovarian,3.03 µM
same,GI50,SK-MEL-28 melanoma,1.72 µM
same,TGI,SK-MEL-28 melanoma,3.12 µM
same,GI50,DU-145 prostate,1.73 µM
same,TGI,DU-145 prostate,3.44 µM
same,GI50,LOX IMVI melanoma,1.25 µM
same,TGI,LOX IMVI melanoma,2.72 µM
same,GI50,RPMI-8226 leukemia,0.841 µM
same,TGI,RPMI-8226 leukemia,2.09 µM
same,GI50,MDA-MB-468 breast,0.927 µM
same,TGI,MDA-MB-468 breast,2.13 µM
same,GI50,SK-MEL-2 melanoma,1.54 µM
same,TGI,SK-MEL-2 melanoma,2.88 µM
same,GI50,NCI-H460 NSCLC,1.06 µM
same,TGI,NCI-H460 NSCLC,2.28 µM
CC(=O)c1c(C)c2cnc(Nc3ccc(N4CCNCC4)cn3)nc2n(C2CCCC2)c1=O,TGI,OVCAR-5 ovarian,12 µM and > 100 µM
same,TGI,NCI-H23 lung,15.1 µM and > 100 µM
same,TGI,A549 NSCLC,10.8 µM and > 100 µM
same,GI50,SR leukemia,0.428 µM and 0.198 µM
same,TGI,SR leukemia,3.83 µM and 0.634 µM
same,TGI,OVCAR-3 ovarian,16.4 µM and > 100 µM
same,TGI,MDA-MB-435 melanoma,11.6 µM and > 100 µM
same,GI50,K-562 leukemia,2.64 µM
same,TGI,K-562 leukemia,9.38 µM
same,GI50,CCRF-CEM leukemia,0.191 µM
same,TGI,CCRF-CEM leukemia,5.34 µM
same,TGI,MDA-MB-231 breast,14.4 µM and > 100 µM
same,TGI,786-0 renal,10.3 µM and > 100 µM
same,TGI,SF-539 CNS,16.7 µM and > 100 µM
same,TGI,U251 glioblastoma,12.2 µM and > 100 µM
same,TGI,HCC-2998 colon,10.9 µM and > 100 µM
same,GI50,ACHN renal,0.976 µM and 3.18 µM
same,TGI,A498 renal,13.1 µM and > 100 µM
same,GI50,HS 578T breast,10.1 µM and > 100 µM
same,TGI,HS 578T breast,17.2 µM and > 100 µM
same,TGI,SNB-19 CNS,13.9 µM and > 100 µM
same,TGI,M14 melanoma,11 µM and > 100 µM
same,TGI,SF-268 CNS,13 µM and > 100 µM
same,TGI,SK-OV-3 ovarian,14.8 µM and > 100 µM
same,TGI,SF-295 CNS,13.7 µM and > 100 µM
same,TGI,UACC-62 melanoma,11.4 µM and > 100 µM
same,GI50,KM12 colon,0.713 µM and 0.388 µM
same,GI50,RXF 393 renal,11.4 µM and > 100 µM
same,TGI,RXF 393 renal,18.7 µM and > 100 µM
same,TGI,UACC-257 melanoma,13.3 µM and > 100 µM
same,TGI,T-47D breast,14.8 µM and > 100 µM
same,TGI,HT29 colon,12.1 µM and > 100 µM
same,TGI,NCI-H522 lung,15 µM and > 100 µM
same,GI50,HL-60(TB) leukemia,0.0811 µM and 0.0379 µM
same,TGI,HOP-62 NSCLC,13.7 µM and > 100 µM
same,TGI,NCI-H226 lung,13.1 µM and > 100 µM
same,TGI,SN12C renal,13.3 µM and > 100 µM
same,TGI,SNB-75 CNS,14.2 µM and > 100 µM
same,TGI,MALME-3M melanoma,11.2 µM and > 100 µM
same,TGI,HOP-92 NSCLC,15 µM and > 100 µM
same,GI50,CAKI-1 renal,0.686 µM and 0.698 µM
same,TGI,EKVX NSCLC,15.4 µM and > 100 µM
same,TGI,PC-3 prostate,15.4 µM and > 100 µM
same,TGI,NCI/ADR-RES ovarian,17.1 µM and > 100 µM
same,TGI,COLO 205 colon,11 µM and > 100 µM
same,TGI,BT-549 breast,14.3 µM and > 100 µM
same,GI50,MOLT-4 leukemia,0.121 µM and 0.123 µM
same,TGI,MOLT-4 leukemia,5.1 µM and 4.65 µM
same,GI50,OVCAR-4 ovarian,11.2 µM and > 100 µM
same,TGI,OVCAR-4 ovarian,18.6 µM and > 100 µM
same,TGI,SK-MEL-28 melanoma,13 µM and > 100 µM
same,TGI,DU-145 prostate,14.6 µM and > 100 µM
same,TGI,OVCAR-8 ovarian,16.4 µM and > 100 µM
same,TGI,NCI-H322M lung,14.5 µM and > 100 µM
same,GI50,LOX IMVI melanoma,25.4 µM
same,TGI,LOX IMVI melanoma,> 100 µM
same,GI50,RPMI-8226 leukemia,0.422 µM
same,TGI,RPMI-8226 leukemia,> 100 µM
same,TGI,MDA-MB-468 breast,10.1 µM and > 100 µM
same,GI50,SK-MEL-2 melanoma,9.24 µM
same,TGI,SK-MEL-2 melanoma,16.2 µM
